In US6379659B1, “Keratin fiber strengthening agent and method for strengthening keratin fiber” (Takasago International Corporation, priority 1997, dated 2002):

Key:
[1] = Breaking strength test, elongation and toughness of solvent-damaged human hair (Example 38)
Method: Samples (Samples 16 to 19) were prepared as described below and breaking strength test and measurement of elongation were carried out under the below-described measuring conditions by using Shimadzu Autograph AGS0599B (manufactured by Simadzu Corp). Based on the results, toughness (breaking strength×elongation) of each of Samples 16 to 19 was calculated.
Relative humidity: 40%, temperature: 25° C.
Hair employed for the test: A hair having a length of about 15 cm and a diameter of about 0.08 to 0.1 mm, clamped 5.0 cm from each end.
(§1) Pulling speed: 5.0 cm/min
(b) Preparation of Samples (Samples 16 to 19)
(§2) Healthy hair, cut off from a person at a beauty parlor, which had not been permed nor bleached, was used.
The healthy hair (untreated hair, Sample 16) weighing 50 g was soaked in 450 ml of a 2:1 mixture of chloroform and ethanol and subjected to ultrasonication for 15 minutes to remove lipid components. The sample was then washed with 250 ml of a 2:1 mixture of chloroform and ethanol and then with 100 ml of acetone, followed by drying under reduced pressure, whereby organic-solvent-treated hair (Sample 17) was obtained.
The solvent-treated hair (Sample 17) weighing 40 g was soaked in a 5-fold weight of each of the treating agents and subjected to ultrasonication for 15 minutes. The hair was then washed five times with 1000 ml of water, followed by drying at 60° C. for 2 hours under reduced pressure and then drying for 3 hours under reduced pressure, whereby each of Samples 18 to 19 were obtained. Described specifically, Sample 18 was the hair treated with the treating agent (placebo treating agent), which had been prepared in Comparative Example 3, subsequent to the treatment with a solvent, while Sample 19 was the hair treated with the keratin fiber strengthening agent of the present invention (Compound-6-containing treating agent) which had been prepared in […].
The differences of the samples are summarized as follows.
Sample 16: Healthy hair (untreated)
Sample 17: Hair treated with the solvent
Sample 18: Hair treated with the solvent and then with the placebo treating agent prepared in Comparative Example
Sample 19: Hair treated with the solvent and then with the keratin fiber strengthening agent of the present invention (Compound-6-containing treating agent) prepared in Example 31

[2] = Breaking strength test on solvent-damaged human hair (Example 31); details: damaged (chloroform/ethanol-treated) hair of person soaked in treating agent; 25° C., 40% RH; average n = 10
Method: Hair samples 1 to 5 were prepared and subjected to a destructive test under the following conditions by the use of Shimadzu Autograph AGS-500B (manufactured by Shimadzu Corp.) to measure a breaking strength.
Hair: A hair having a length of about 15 cm and a diameter of about 0.08 to 0.1 mm, clamped 5.7 cm from each end.
as §1
(§3) Atmosphere: 25° C., 40% RH
as §2
The healthy hair (untreated hair, sample 1) weighing 50 g was soaked in 450 ml of a 2:1 (by volume) mixture of chloroform and ethanol and subjected to ultrasonication for 15 minutes to remove lipids. The sample was washed with 250 ml of a 2:1 (by volume) mixture of chloroform and ethanol and then with 100 ml of acetone and dried to prepare solvent-treated hair as damaged hair (sample 2).
The solvent-treated hair weighing 40 g was soaked in a 5-fold weight of each of the blank treating agent of Comparative Example 1, the racemate-containing treating agent of Comparative Example 2, and the keratin fiber strengthening agent of Example 1 and subjected to ultrasonication for 15 minutes, followed by washing with five 1000 ml portions of water. The treated hair was dried under reduced pressure at 60° C. 2 hours and then under reduced pressure for 3 hours to prepare samples 3 to 5, respectively.

[3] = Young's modulus, breaking strength, elongation and toughness of solvent-damaged human hair (Examples 33, 35); details: damaged hair of person soaked in treating agent; n=10
Method: as §2
Healthy hair (untreated hair, sample 6) was treated with a chloroform-ethanol mixed solvent in the same manner as in Example 31 to prepare sample 7. Samples 8 to 10 were prepared in the same manner as for samples 3 to 5 of Example 31. The breaking strength of each sample was measured by means of Shimadzu Autograph. A Young's modulus was also measured.

[4] = Breaking strength test on dog hair (Example 36)
Method: Dog hair samples 11 to 15 were prepared as follows and subjected to a destructive test under the following conditions by the use of Shimadzu Autograph AGS-SOOB (manufactured by Shimadzu Corp.) to measure a breaking strength and a Young's modulus. The breaking strength and Young's modulus data obtained are also graphically represented in FIGS. 4 and 5, respectively.
Dog Hair: A dog hair having a length of about 10 to 15 cm and a diameter of about 0.08 to 0.1 mm, clamped 2 cm from each end.
as §1, §3
Healthy dog hairs collected from around the neck of a 4-year-old male Shetland sheepdog were used. The untreated hair as collected (sample 11) weighing 50 g was treated in the same manner as in Example 31 to prepare samples 12 to 15.

[5] = solvent-treated hair of person soaked in treating agent, mean n=10
[6] = damaged dog hair soaked in treating agent, n = 10

| SMILES | Breaking strength of hair as compared with the placebo treating agent, in words ([1]; P<0.05 vs Sample 18) | Breaking Strength [1, 5] [Kgf] | Elongation [1, 5] [mm] | Toughness (breaking strength×elongation) [1, 5] [kgf·mm] | Breaking Strength [2] [kgf] | Breaking Strength [3] [kgf] | Elongation [3] [mm] | Toughness (product of breaking strength and elongation) [3] [kgf × mm] | Breaking Strength per area ([4]; damaged dog hair soaked in treating agent) [kgf/mm^2] | Breaking Strength [4, 6] [kgf] | Young's Modulus [4, 6] [kgf/mm^2] | Improvements on breaking strength and Young's modulus, in words ([4]; not only human hair but dog hair) |
| --- | --- | --- | --- | --- | --- | --- | --- | --- | --- | --- | --- | --- |
| CCCCCCCCCCCCCCC[C@@H](O)[C@H](CO)NC(=O)C(O)CCCCCCCCCCCCCC (stereo partly drawn) [Compound 6, (2S,3R)-2-(2-hydroxyhexadecanoyl)aminooctadecane-1,3-diol] | significantly increases | 0.266 | 26.02 | 6.921 | – | – | – | – | – | – | – | – |
| CCCCCCCCCCCCCCCCCC(=O)N[C@@H](CO)[C@H](O)CCCCCCCCCCCCCCC [Compound 1, (2S,3R)-2-octadecanoylaminooctadecane-1,3-diol] | – | – | – | – | 0.2058 | 0.2941 | 27.08 | 7.9642 | 42.55 | 0.1196 | 605.240 | significant improvements |
